pIC50: −log10 of the molar value. Active and inactive are the calls of the source. The rule behind the calls is not given here.
Tests used:
[1] = test system: HEK293; experiment: Antiproliferative activity against HEK293 cells after 24 hrs by SRB assay; format: cell-based; details: Homo sapiens, HEK293, 24 h
[2] = test system: A549; experiment: Antiproliferative activity against human A549 cells after 24 hrs by SRB assay; format: functional, cell-based; details: A549, 24 h
[3] = test system: HeLa; experiment: Antiproliferative activity against human HeLa cells after 24 hrs by SRB assay; format: functional, cell-based
[4] = test system: MDA-MB-231; experiment: Antiproliferative activity against human MDA-MB-231 cells after 24 hrs by SRB assay; format: functional, cell-based; details: MDA-MB-231, 24 h
[5] = test system: HeLa; experiment: Inhibition of microtubules in human HeLa cells assessed as induction of disorganized spindle fibers formation at 5 uM after 24 hrs by DAPI staining-based confocal microscopic analysis; format: cell-based
[6] = test system: HeLa; experiment: Cell cycle arrest in human HeLa cells assessed as accumulation of cells at G2/M phase at 5 uM after 24 hrs by propidium iodide staining-based flow cytometric analysis (reference value: 16.4%); format: functional
[7] = test system: HeLa; experiment: Inhibition of microtubules in human HeLa cells assessed as induction of cell cycle arrest in metaphase at 5 uM after 24 hrs by DAPI staining-based confocal microscopic analysis
[8] = test system: HeLa; experiment: Inhibition of microtubules in human HeLa cells assessed as increase in cyclin B1 protein level at 5 uM affter 24 hrs by Western blot analysis; format: cell-based
[9] = test system: HeLa; experiment: Inhibition of microtubules in human HeLa cells assessed as increase in CDK1 protein level at 5 uM affter 24 hrs by Western blot analysis; format: cell-based
[10] = molecular target: Tubulin (Homo sapiens) (UniProt P68371+Q9H4B7+P0DPH7+P68366+Q13509+Q71U36+P04350+Q3ZCM7+P07437+P68363+Q9BQE3+Q6PEY2+Q13885+Q9BVA1+Q9BUF5); experiment: Inhibition of tubulin polymerization in human HeLa cells assessed as reduction in polymerized tubulin expression at 5 uM affter 24 hrs by Western blot analysis; format: cell-based
[11] = test system: HeLa; experiment: Induction of apoptosis in human HeLa cells assessed as increase in caspase-3 activation at 5 uM after 24 hrs by fluorescence assay; format: functional, cell-based
[12] = test system: HeLa; experiment: Induction of apoptosis in human HeLa cells assessed as increase in Bax expression at 5 uM after 24 hrs by Western blot analysis; format: functional, cell-based
[13] = test system: HeLa; experiment: Induction of apoptosis in human HeLa cells assessed as increase in p53 expression at 5 uM after 24 hrs by Western blot analysis; format: functional, cell-based
[14] = test system: HeLa; experiment: Induction of apoptosis in human HeLa cells assessed as increase in p21 expression at 5 uM after 24 hrs by Western blot analysis; format: functional, cell-based
[15] = test system: HeLa; experiment: Induction of apoptosis in human HeLa cells assessed as increase in p53 expression at 5 uM after 24 hrs by DAPI staining-based immunocytochemistry; format: functional, cell-based
[16] = test system: HeLa; experiment: Induction of apoptosis in human HeLa cells assessed as increase in Bax expression at 5 uM after 24 hrs by DAPI staining-based immunocytochemistry; format: functional, cell-based

Row | SMILES | pIC50 [1] | pIC50 [2] | pIC50 [3] | pIC50 [4] | other results
1 | COc1cc2c(cc1OC)-c1n[nH]c(/C=C3\C(=O)Nc4ccc(Cl)cc43)c1C2 | 5.04 | 4.87 | 5.05 | 4.91 | –
2 | O=C1Nc2cc(Br)ccc2/C1=C/c1[nH]nc2c1Cc1ccccc1-2 | 4.47 | 4.45 | 4.51 | 4.53 | –
3 | COc1ccc2c(c1)-c1n[nH]c(/C=C3\C(=O)Nc4ccccc43)c1C2 | 4.65 | 4.69 | 4.80 | 4.71 | –
4 | COc1ccc2c(c1)-c1n[nH]c(/C=C3\C(=O)Nc4ccc(Br)cc43)c1C2 | 4.45 | 4.53 | 4.51 | 4.47 | –
5 | O=C1Nc2ccccc2/C1=C/c1[nH]nc2c1Cc1ccccc1-2 | 4.62 | 4.78 | 4.93 | 4.72 | –
6 | O=C1Nc2cc(Cl)ccc2/C1=C/c1[nH]nc2c1Cc1ccccc1-2 | 4.71 | 4.69 | 4.84 | 4.61 | –
7 | COc1ccc(/C=C\c2cc(OC)c(OC)c(OC)c2)cc1O [COMBRETASTATIN A4] | 5.76 | 5.94 | 5.84 | 6.04 | inhibition [5]: Active; Activity [6]: 55.8%; inhibition [7]: Active
8 | COc1ccc2c(c1)-c1n[nH]c(/C=C3\C(=O)Nc4ccc([N+](=O)[O-])cc43)c1C2 | 4.51 | 4.59 | 4.66 | 4.54 | –
9 | COc1cc2c(cc1OC)-c1n[nH]c(/C=C3\C(=O)Nc4cc(Br)ccc43)c1C2 | 4.61 | 4.65 | 4.69 | 4.69 | –
10 | O=C1Nc2ccc(Cl)cc2/C1=C/c1[nH]nc2c1Cc1ccccc1-2 | 4.61 | 4.69 | 4.82 | 4.77 | –
11 | COc1ccc2c(c1)-c1n[nH]c(/C=C3\C(=O)Nc4ccc(Cl)cc43)c1C2 | 4.56 | 4.75 | 4.76 | 4.68 | –
12 | COc1cc2c(cc1OC)-c1n[nH]c(/C=C3\C(=O)Nc4ccc(Br)cc43)c1C2 | 4.71 | 4.77 | 4.94 | 4.73 | –
13 | COc1ccc2c(c1)-c1n[nH]c(/C=C3\C(=O)Nc4cc(Br)ccc43)c1C2 | 4.54 | 4.58 | 4.60 | 4.63 | –
14 | COc1cc2c(cc1OC)-c1n[nH]c(/C=C3\C(=O)Nc4ccccc43)c1C2 | 5.36 | 5.53 | 5.67 | 5.46 | inhibition [8]: Active; inhibition [5]: Active; inhibition [9]: Active; Activity [6]: 23.6%; inhibition [10]: Active; Activity [11]: Active; inhibition [7]: Active
15 | COc1ccc2c(c1)/C(=C/c1[nH]nc3c1Cc1cc(OC)c(OC)cc1-3)C(=O)N2 | 5.29 | 5.46 | 5.59 | 5.38 | inhibition [8]: Active; inhibition [5]: Active; inhibition [9]: Active; Activity [6]: 31.3%; inhibition [10]: Active; inhibition [7]: Active
16 | COc1cc2c(cc1OC)-c1n[nH]c(/C=C3\C(=O)Nc4cc(Cl)ccc43)c1C2 | 5.53 | 5.61 | 5.88 | 5.68 | inhibition [8]: Active; inhibition [5]: Active; Activity [12]: Active; Activity [13]: Active; inhibition [9]: Active; Activity [6]: 30.3%; Activity [14]: Active; inhibition [10]: Active; Activity [15]: Active; Activity [16]: Active; Activity [11]: Active; inhibition [7]: Active
17 | COc1ccc2c(c1)-c1n[nH]c(/C=C3\C(=O)Nc4cc(Cl)ccc43)c1C2 | 4.66 | 4.68 | 4.77 | 4.72 | –
18 | O=C1Nc2ccc(Br)cc2/C1=C/c1[nH]nc2c1Cc1ccccc1-2 | 4.65 | 4.68 | 4.77 | 4.69 | –
19 | COc1cc2c(cc1OC)-c1n[nH]c(/C=C3\C(=O)Nc4cc([N+](=O)[O-])ccc43)c1C2 | 4.43 | 4.46 | 4.51 | 4.52 | –
20 | COc1ccc2c(c1)/C(=C/c1[nH]nc3c1Cc1ccccc1-3)C(=O)N2 | 4.47 | 4.53 | 4.52 | 4.57 | –
